In data set [1] the test system is Mus musculus. The experiment in a line: Toxicity in mouse assessed as inflamed intestine at 100 mg/kg, po administered once a week. It is filed as organism-based. On the set-up: dose 100 mg/kg, route oral. The settings on record: in vivo.
Data set [2] relates to Mus musculus. Kind of data set: Toxicity in mouse assessed as enlarged intestine at 100 mg/kg, po administered once a week. The settings on record: in vivo. It is filed as organism-based. On the set-up: dose 100 mg/kg, route oral.
In data set [3] the test system is Mus musculus. The experiment in a line: Toxicity in mouse assessed as distended stomach at 100 mg/kg, po administered once a week. It is filed as organism-based. As to conditions: in vivo. Also noted: dose 100 mg/kg, route oral.
The subject of data set [4] is Mus musculus. Kind of data set: Toxicity in mouse assessed as moribund at 100 mg/kg, po administered once a week measured on day 26. The settings on record: in vivo. It is filed as organism-based. On the set-up: dose 100 mg/kg, route oral.
In data set [5] the test system is Mus musculus. Kind of data set: Toxicity in mouse assessed as body weight change at 100 mg/kg, po administered once a week. It is filed as organism-based. On the set-up: dose 100 mg/kg, route oral. The settings on record: in vivo.
Data set [6] is described as follows: Antitumor activity against human MDA-MB-435-LM2 cells xenografted in mouse assessed as tumor size at 100 mg/kg, po administered once a week measured on day 26 relative to control. It is filed as functional.
The target in data set [7] is T1, Vascular endothelial growth factor receptor 2 (Homo sapiens, UniProt P35968). The experiment in a line: Inhibition of VEGFR-2 kinase assessed as phosphorylated level of pGAT-biotin peptide preincubated for 5 to 10 mins before addition of substrate measured after 2 hrs by HTRF assay. In general terms: In TR-FRET formats the signal depends on donor and acceptor labels being close together.
T1 sequence (P35968 whole entry): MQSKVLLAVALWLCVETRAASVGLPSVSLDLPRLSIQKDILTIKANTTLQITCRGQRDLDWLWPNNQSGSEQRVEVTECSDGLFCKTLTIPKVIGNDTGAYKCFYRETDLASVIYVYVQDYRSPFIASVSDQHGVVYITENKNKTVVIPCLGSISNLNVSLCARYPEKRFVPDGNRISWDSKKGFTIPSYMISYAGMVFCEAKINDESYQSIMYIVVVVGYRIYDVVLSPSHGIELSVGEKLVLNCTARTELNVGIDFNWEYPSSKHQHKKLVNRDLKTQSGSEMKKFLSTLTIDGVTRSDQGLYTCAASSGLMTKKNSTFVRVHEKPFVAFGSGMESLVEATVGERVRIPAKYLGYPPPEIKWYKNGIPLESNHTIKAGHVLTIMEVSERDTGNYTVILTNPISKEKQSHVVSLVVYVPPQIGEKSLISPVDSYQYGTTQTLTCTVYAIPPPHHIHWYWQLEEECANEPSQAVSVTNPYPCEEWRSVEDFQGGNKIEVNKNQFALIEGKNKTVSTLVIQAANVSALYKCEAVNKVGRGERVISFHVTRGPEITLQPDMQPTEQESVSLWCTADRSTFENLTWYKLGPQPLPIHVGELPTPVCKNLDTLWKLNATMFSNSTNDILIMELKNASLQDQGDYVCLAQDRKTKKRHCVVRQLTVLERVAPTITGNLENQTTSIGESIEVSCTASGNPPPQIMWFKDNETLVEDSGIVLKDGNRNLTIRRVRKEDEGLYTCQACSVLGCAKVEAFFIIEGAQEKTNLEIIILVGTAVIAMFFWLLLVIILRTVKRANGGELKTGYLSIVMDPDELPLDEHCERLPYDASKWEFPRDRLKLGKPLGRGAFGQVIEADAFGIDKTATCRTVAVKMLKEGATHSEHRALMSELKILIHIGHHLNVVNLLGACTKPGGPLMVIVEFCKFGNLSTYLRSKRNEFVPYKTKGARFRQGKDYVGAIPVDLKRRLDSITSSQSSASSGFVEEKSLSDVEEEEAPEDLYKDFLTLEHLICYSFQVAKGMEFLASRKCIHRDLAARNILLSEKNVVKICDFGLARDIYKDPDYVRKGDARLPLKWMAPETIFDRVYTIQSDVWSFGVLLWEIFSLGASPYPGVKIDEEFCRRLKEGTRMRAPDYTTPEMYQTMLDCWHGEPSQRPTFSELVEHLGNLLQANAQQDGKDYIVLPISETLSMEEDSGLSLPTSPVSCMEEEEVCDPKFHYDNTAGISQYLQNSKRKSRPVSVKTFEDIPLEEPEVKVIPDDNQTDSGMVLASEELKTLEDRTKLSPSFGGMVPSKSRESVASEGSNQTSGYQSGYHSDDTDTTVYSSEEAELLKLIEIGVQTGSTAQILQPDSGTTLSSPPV

The target in data set [8] is T1, Vascular endothelial growth factor receptor 2. Kind of data set: Inhibition of VEGFR2 expressed HEK293 cells. It is filed as cell-based.
The nature of data set [9]: Inhibition of bovine tubulin polymerization after 30 mins by turbidity assay. Also noted: species or system Bos taurus.
For a further data set, the system named is A-431. Kind of data set: cells. As to conditions: Homo sapiens, A-431, 24 h.
In data set [10] the target is Cyclin-dependent kinase 1 (Homo sapiens) (UniProt P06493). Kind of data set: Inhibition of CDK1.
Sequence of Cyclin-dependent kinase 1 (Homo sapiens) (P06493 whole entry, looked up): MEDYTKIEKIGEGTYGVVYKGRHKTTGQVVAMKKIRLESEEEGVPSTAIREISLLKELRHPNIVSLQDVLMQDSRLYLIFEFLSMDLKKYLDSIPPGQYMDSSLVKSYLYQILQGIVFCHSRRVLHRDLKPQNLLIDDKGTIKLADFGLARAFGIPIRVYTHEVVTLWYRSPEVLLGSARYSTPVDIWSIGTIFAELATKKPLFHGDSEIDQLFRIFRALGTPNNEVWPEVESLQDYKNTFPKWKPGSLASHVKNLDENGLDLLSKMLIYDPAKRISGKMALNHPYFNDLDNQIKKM
The target of data set [11] is T2, Aurora kinase A (Homo sapiens) (UniProt O14965).
T2 sequence (whole entry): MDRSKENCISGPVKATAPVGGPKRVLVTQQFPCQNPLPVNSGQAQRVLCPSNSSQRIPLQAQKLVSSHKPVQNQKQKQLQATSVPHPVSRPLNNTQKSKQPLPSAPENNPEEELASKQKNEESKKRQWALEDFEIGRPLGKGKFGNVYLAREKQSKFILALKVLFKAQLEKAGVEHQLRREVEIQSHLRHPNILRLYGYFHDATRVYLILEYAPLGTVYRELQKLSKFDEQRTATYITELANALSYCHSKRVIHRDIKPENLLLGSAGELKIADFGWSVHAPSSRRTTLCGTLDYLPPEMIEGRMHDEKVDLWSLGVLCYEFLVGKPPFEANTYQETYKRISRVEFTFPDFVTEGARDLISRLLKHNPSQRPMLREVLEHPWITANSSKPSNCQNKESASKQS
The experiment in a line: Inhibition of Aurora A kinase.

Data set [12] concerns the target Serine/threonine-protein kinase PLK1 (Homo sapiens) (UniProt P53350). Kind of data set: Inhibition of polo-like kinase 1.
Data set [13] relates to Mus musculus. The experiment in a line: Toxicity in mouse assessed as abnormal pathology at 100 mg/kg, po administered once a week. It is filed as organism-based. Also noted: dose 100 mg/kg, route oral. As to conditions: in vivo.
The subject of data set [14] is Mus musculus. Kind of data set: Toxicity in mouse assessed as neuropathy at 100 mg/kg administered once a week. Also noted: dose 100 mg/kg. The settings on record: in vivo. It is filed as organism-based.
A short description of data set [15]: Toxicity in po dosed mouse. As to conditions: in vivo. It is filed as organism-based.
Data set [16] concerns Mus musculus. Kind of data set: Toxicity in mouse assessed as discomfort signs at 100 mg/kg, po administered once a week. It is filed as organism-based. Also noted: dose 100 mg/kg, route oral. The settings on record: in vivo.
Data set [17] has as its system Mus musculus. Kind of data set: Toxicity in mouse assessed as white blood cell depletion at 100 mg/kg administered once a week. It is filed as organism-based. Also noted: dose 100 mg/kg. As to conditions: in vivo.

Calls of active or inactive are those of the source. No cut-off for these calls is given here.

Sequence of Serine/threonine-protein kinase PLK1 (Homo sapiens) (P53350 whole entry): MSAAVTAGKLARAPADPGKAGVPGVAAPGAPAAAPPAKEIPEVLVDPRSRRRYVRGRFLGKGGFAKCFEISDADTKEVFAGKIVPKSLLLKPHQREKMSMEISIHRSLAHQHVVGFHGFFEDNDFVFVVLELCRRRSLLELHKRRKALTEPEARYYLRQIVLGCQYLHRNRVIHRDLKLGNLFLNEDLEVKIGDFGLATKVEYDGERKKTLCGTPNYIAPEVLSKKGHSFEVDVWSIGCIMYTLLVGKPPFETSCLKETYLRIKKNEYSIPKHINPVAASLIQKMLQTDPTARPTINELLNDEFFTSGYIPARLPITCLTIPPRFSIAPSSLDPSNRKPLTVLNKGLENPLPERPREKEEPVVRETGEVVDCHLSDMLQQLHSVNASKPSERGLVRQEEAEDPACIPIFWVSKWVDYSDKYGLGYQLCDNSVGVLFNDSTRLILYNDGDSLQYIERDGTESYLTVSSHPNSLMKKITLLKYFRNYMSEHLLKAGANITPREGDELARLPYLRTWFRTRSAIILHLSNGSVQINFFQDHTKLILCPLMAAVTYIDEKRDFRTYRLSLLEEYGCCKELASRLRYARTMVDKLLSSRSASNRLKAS
Description for A-431: Cell cycle arrest in human A431 cells assessed as accumulation at G2/M phase after 24 hrs using propidium iodide staining by cell sorting method

Regarding `CC(=O)O[C@H]1C(=O)[C@@]2(C)[C@H]([C@H](OC(=O)c3ccccc3)[C@]3(O)C[C@H](OC(=O)[C@H](O)[C@@H](NC(=O)c4ccccc4)c4ccccc4)C(C)=C1C3(C)C)[C@]1(OC(C)=O)CO[C@@H]1C[C@@H]2O` [PACLITAXEL], the Activity entry with Mus musculus [1] is “Toxic”; in the data set on Mus musculus [2] it was “Toxic”; in the data set on Mus musculus [3] it was “Toxic”; in the data set on Mus musculus [4] it was “Toxic”; in the data set on Mus musculus [5], 2.8%; in [6] it was 78%.

On to `c1cncc(CNc2ncccc2-c2nnc(Nc3ccc4c(c3)OCO4)o2)c1`, for which the IC50 – broadly, the concentration needed to halve the response being measured – in data set [7] was over 10 µM; in data set [8] it was over 10 µM; in data set [9] it was 8.8 µM.

As for `c1cnc(NCCc2ccncc2)c(-c2nnc(Nc3ccc4c(c3)OCO4)o2)c1`, the EC50 (as a rule, the concentration needed to bring the measured effect to its halfway point) with A-431 is over 10 µM. Moreover, the IC50 in data set [7], in data set [8] and in [9] was over 10 µM in each case.

In the case of `FC1(F)Oc2ccc(Nc3nnc(-c4cccnc4NCc4ccncc4)o3)cc2O1`, the EC50 with A-431 was over 10 µM. The values for the IC50 in [7], in [8] and in data set [9] were 3.16 µM, over 10 µM and 3.9 µM, respectively.

`c1ccc(-c2nnc(Nc3ccc4c(c3)OCCO4)[nH]2)c(NCc2cnc[nH]2)c1` displayed a concentration giving a half-maximal response (EC50) in the data set on A-431 of over 10 µM. The IC50 was 4.6 µM in data set [7], over 10 µM in data set [8] and over 10 µM in [9].

In the data set with A-431, `c1cnc(NCc2ccc3c(c2)OCO3)c(-c2nnc(Nc3ccc4c(c3)OCO4)o2)c1` yielded a 50% effective concentration (EC50) of 0.52 µM. In addition, the IC50 in data set [7] was over 10 µM; in data set [8], over 10 µM; in [9], 2.5 µM.

In the data set on A-431, `FC(F)(F)c1cccc(-c2nnc(-c3cccnc3NCc3ccncc3)[nH]2)c1` gave an EC50 of over 10 µM. Besides, the results for the IC50 in data set [7], in [8] and in data set [9] were 1.1 µM, 1 µM and over 10 µM, respectively.

As for `c1cnc(NCc2ccc3ncccc3c2)c(-c2nnc(Nc3ccc4c(c3)OCCO4)o2)c1`, the EC50 in the data set on A-431 worked out at 0.018 µM. Moreover, the half-inhibitory concentration (IC50) worked out at 0.3 µM in data set [7], 0.22 µM in data set [8] and 1.45 µM in data set [9]. Further, the inhibition result in data set [10], in data set [11] and in data set [12] was “Active” each time.

`c1cncc(CCNc2ncccc2-c2nnc(Nc3ccc4c(c3)OCO4)o2)c1` came in with an EC50 in the data set with A-431 of over 10 µM. In addition, the IC50 in [7] is 3.41 µM; in data set [8] it was over 10 µM; in data set [9] it was 1.7 µM.

Take `c1cnc(NCc2ccncc2)c(-c2nnc(Nc3ccc4c(c3)OCO4)o2)c1`: the half-maximal inhibitory concentration (IC50) in [7] is 1.89 µM; in [8] it was over 10 µM; in data set [9], 1 µM.

Consider `c1ccc(-c2nnc(Nc3ccc4c(c3)OCCO4)[nH]2)c(NCc2ccc3[nH]ncc3c2)c1`, for which the EC50 in the data set on A-431 is over 10 µM. Further, the IC50 is 3.1 µM in data set [7], 7.3 µM in data set [8] and over 10 µM in data set [9].

For `c1ccc(CNc2ncccc2-c2nnc(Nc3ccc4c(c3)OCCO4)o2)nc1`, the half-maximal inhibitory concentration (IC50) was over 10 µM in data set [7], over 10 µM in data set [8] and 1.9 µM in data set [9].

`c1cnc(NCc2ccc3[nH]ncc3c2)c(-c2nnc(Nc3ccc4c(c3)OCCO4)o2)c1` returned an EC50 in the data set with A-431 of 0.034 µM. Further, the values for the IC50 in data set [7], in data set [8] and in [9] were 1.4 µM, over 10 µM and 1.25 µM, respectively.

For the molecule `c1ccc(CNc2ncccc2-c2nnc(Nc3ccc4c(c3)OCO4)o2)nc1`, the values for the IC50 in [7], in data set [8] and in [9] were over 10 µM, over 10 µM and 1.7 µM, respectively.

As for `c1ccc(-c2nnc(Nc3ccc4c(c3)OCCO4)o2)c(NCc2ccncc2)c1`, the Activity entry in the data set on Mus musculus [13] is given as “Toxic”; in the data set with Mus musculus [14], “Non-toxic”; in the data set with Mus musculus [5] it was 3.1%; with Mus musculus [16], “Toxic”; in the data set with Mus musculus [17], “Non-toxic”; in [6], 28%. The molecule also had an EC50 in the data set with A-431 of 0.009 µM. In addition, the IC50 was 0.21 µM in data set [7], 0.11 µM in [8] and 1.09 µM in data set [9]. For the same molecule, the inhibition result in data set [10], in data set [11] and in [12] was “Active” in each case. In data set [15], this molecule gave an MTD of 100 mg/kg.

For `c1cncc(CNc2ccccc2-c2nnc(Nc3ccc4c(c3)OCCO4)[nH]2)c1`, the EC50 with A-431 is over 10 µM. The IC50 is 3.2 µM in [7], 2.8 µM in data set [8] and over 10 µM in [9].

With `c1ccc(-c2nnc(Nc3ccc4c(c3)OCO4)o2)c(NCc2ccncc2)c1`, the concentration giving a half-maximal response (EC50) with A-431 was 0.62 µM. The results for the IC50 in data set [7], in [8] and in data set [9] were 0.83 µM, over 10 µM and 0.69 µM, respectively.

As for `c1cncc(CCNc2ncccc2-c2nnc(Nc3ccc4c(c3)OCCO4)o2)c1`, the EC50 with A-431 is over 10 µM. For the same molecule, the IC50 in data set [7], in [8] and in data set [9] was over 10 µM throughout.

`c1cnc(NCc2cnc[nH]2)c(-c2nnc(Nc3ccc4c(c3)OCCO4)o2)c1` gave an EC50 in the data set with A-431 of 0.01 µM. The IC50 in data set [7] was determined as 0.16 µM; in [8], 0.83 µM; in [9], 1.5 µM.

For the molecule `c1ccc(-c2nnc(Nc3ccc4c(c3)OCCO4)[nH]2)c(NCc2ccncc2)c1`, in the data set with A-431, the concentration for a half-maximal effect (EC50) stood at 0.049 µM. The figures for the half-inhibitory concentration (IC50) in data set [7], in data set [8] and in [9] were 5.1 µM, over 10 µM and 8.1 µM, respectively.

On to `c1cncc(CNc2ncccc2-c2nnc(Nc3ccc4c(c3)OCCO4)o2)c1`, for which the IC50 is over 10 µM in data set [7], over 10 µM in data set [8] and 0.7 µM in data set [9].

Regarding `c1cnc(NCCc2ccncc2)c(-c2nnc(Nc3ccc4c(c3)OCCO4)o2)c1`, the EC50 with A-431 was over 10 µM. In addition, the IC50 in data set [7], in data set [8] and in data set [9] was over 10 µM each time.

In the data set with A-431, `FC(F)(F)c1cccc(-c2nnc(-c3cccnc3NCc3ccncc3)o2)c1` had a concentration for a half-maximal effect (EC50) of over 10 µM. Further, the IC50 was 2.5 µM in data set [7], over 10 µM in data set [8] and over 10 µM in data set [9].

Turning to `c1ccc(-c2nnc(Nc3ccc4c(c3)OCCO4)[nH]2)c(NCc2ccc3ncccc3c2)c1`, in the data set on A-431, the EC50 is over 10 µM. Moreover, the IC50 in data set [7], in [8] and in data set [9] was over 10 µM in each case.

Regarding `CS(=O)(=O)c1ccc(-c2nnc(-c3cccnc3NCC3COCCO3)[nH]2)cc1` (stereo unspecified), the EC50 with A-431 is over 10 µM. The values for the IC50 in data set [7], in data set [8] and in data set [9] were 4.5 µM, over 10 µM and 6.6 µM, respectively.

As to `c1cnc(NCc2ccncc2)c(-c2nnc(Nc3ccc4c(c3)OCCO4)o2)c1`, the IC50 in data set [7] was found to be 0.17 µM; in data set [8] it was 1 µM; in [9] it was 0.5 µM.

For the molecule `c1cnc(NCc2ccc3c(c2)OCO3)c(-c2nnc(Nc3ccc4c(c3)OCCO4)o2)c1`, the IC50 in [7] is 2.6 µM; in [8], over 10 µM; in data set [9], 0.71 µM.

These data come from ChEMBL document CHEMBL1687699, “Discovery of Dual VEGFR-2 and Tubulin Inhibitors with in Vivo Efficacy” (ACS Med Chem Lett, 2010).
